Results as given in patent US10624893B2 (priority 2016, dated 2020).
Converted amounts (≈) assume the structure as drawn. Like-named read-outs stand apart in the source and are kept apart here.

Legend:
[1] = test system: Mycobacterium tuberculosis (H37Rv strain from ATCC cat #27294) expressing the green-fluorescent protein (GFP); experiment: microbe, parasite or virus in culture; type: cell-based; conditions: 120 h
[2] = test system: Mycobacterium tuberculosis growing inside murine Raw 264.7 cell line; experiment: microbe, parasite or virus in culture; type: cell-based; conditions: H37RV, RAW264.7, 120 h
[3] = test system: M. tuberculosis H37Rv strain; conditions: for reduction of microorganism burden in lungs with respect to untreated controls (Day 9): C57BL/6 mice
[4] = test system: Mycobacterium bovis BCG str. Pasteur 1173P2; experiment: microbe, parasite or virus in culture; type: cell-based
[5] = test system: Mycobacterium tuberculosis growing inside human THP-1 monocytes; experiment: Intracellular viability assay 1b (THP-1, luciferase, Bright-Glo); type: cell-based, Mycobacterium tuberculosis H37Rv; conditions: THP-1, 120 h
[6] = test system: Mycobacterium tuberculosis growing inside human THP-1 monocytes; experiment: Intracellular viability assay 1a (THP-1, luciferase, Steady-Glo); type: cell-based, Mycobacterium tuberculosis H37Rv; conditions: THP-1, 120 h
[7] = test system: M. tuberculosis strain H37Rv; experiment: Extracellular viability assay, glucose media (Method 2), resazurin MIC; type: cell-based; conditions: Mycobacterium tuberculosis
M. bovis 0AF2122 = experiment: microbe, parasite or virus in culture; type: cell-based; conditions: Mycobacterium tuberculosis variant bovis, 0AF2122, read-out: MIC 2
[8] = test system: Mycobacterium tuberculosis Erdman strain; experiment: Extracellular viability assay, Erdman strain, cholesterol media (Method 3); type: cell-based; conditions: 0.01% cholesterol medium, 7 days + 48 h resazurin, average over 5 measurements
M. africanum = experiment: Extracellular MIC assay of Example 7, M. africanum; type: cell-based; conditions: Mycobacterium tuberculosis, cholesterol medium
[9] = read-out: IC50 (uM) (cholesterol media)
[10] = read-out: IC50 (uM) (glucose media)

Structure (SMILES)	IC50 [1, 9]	IC50 [1, 10]	IC50 [2]	reduction of microorganism burden in lungs with respect to untreated controls (Day 9) ([3]; 30 mg/kg once a day for 8 days)	inhibition at 2 µM ([4]; Mycobacterium tuberculosis variant bovis BCG, BCG)	IC50 [5]	IC50 [6]	reduction of microorganism burden in lungs with respect to untreated controls (Day 9) ([3]; 200 mg/kg once a day for 8 days)	oral bioavailability (conclusion from murine in vivo data) ([3]; mouse)	% Inhibition [4]	MIC [7]	MIC (M. bovis 0AF2122)	IC50 [8]	MIC (M. africanum; read-out: MIC 1)	MIC (M. africanum; read-out: MIC 2)
NNC(=O)c1ccncc1 [Isoniazid]	0.2 µM	0.5 µM	0.07 µM	–	–	–	–	–	–	–	–	–	–	–	–
COc1c(N2C[C@@H]3CCCN[C@@H]3C2)c(F)cc2c(=O)c(C(=O)O)cn(C3CC3)c12 [Moxifloxacin, reference compound]	–	–	–	3.2 log10 CFU	–	–	–	–	–	–	–	–	–	–	–
CO[C@H]1/C=C/O[C@@]2(C)Oc3c(C)c(O)c4c(O)c(c(/C=N/N5CCN(C)CC5)c(O)c4c3C2=O)NC(=O)/C(C)=C\C=C\[C@H](C)[C@H](O)[C@@H](C)[C@@H](O)[C@@H](C)[C@H](OC(C)=O)[C@@H]1C [Rifampicin, reference compound]	0.04 µM	0.02 µM	0.2 µM	–	100%	0.002 µM	0.01 µM	–	–	–	–	–	–	–	–
Cc1cccc(OC2CCN(Cc3cc(=O)[nH]c(=O)[nH]3)CC2)c1C [Test Compound, 6-((4-(2,3-dimethylphenoxy)piperidin-1-yl)methyl)pyrimidine-2,4(1H,3H)-dione]	0.28 µM	> 20 µM	0.06 µM	–	–	0.07 µM	0.39 µM	1.6 log10 CFU	orally bioavailable	46.18%	> 12.5 µM	0.78 µM (≈ 0.257 µg/mL)	0.874 µM	1.2 µM (≈ 0.395 µg/mL)	1.2 µM (≈ 0.395 µg/mL)
